Reference: article PMC12969314 (European journal of medicinal chemistry, 2022)

Legend:
[1] = Mouse liver microsomal intrinsic clearance; format: in vitro ADME; conditions: for Predicted hepatic clearance mCLHEP: well-stirred organ CL model, binding terms excluded; for CLint scaled: liver microsomes
SERT = SERT (Homo sapiens, UniProt P31645); assay: PDSP panel binding, SERT; conditions: σ1 over SERT
[2] = Mouse plasma protein binding, equilibrium dialysis; format: in vitro ADME; conditions: mouse, plasma, fu (mPPB), fraction, used for Kp,uu
[3] = Human liver microsomal intrinsic clearance; format: in vitro ADME; conditions: human; for CLint scaled: liver microsomes, Intrinsic clearance hCLINT, human liver microsomes; for Predicted hepatic clearance hCLHEP: well-stirred organ CL model, binding terms excluded
α2C = biological target: T1, α2C (Homo sapiens, UniProt P18825); assay: PDSP panel binding, α2C
T1 sequence (P18825 1-462): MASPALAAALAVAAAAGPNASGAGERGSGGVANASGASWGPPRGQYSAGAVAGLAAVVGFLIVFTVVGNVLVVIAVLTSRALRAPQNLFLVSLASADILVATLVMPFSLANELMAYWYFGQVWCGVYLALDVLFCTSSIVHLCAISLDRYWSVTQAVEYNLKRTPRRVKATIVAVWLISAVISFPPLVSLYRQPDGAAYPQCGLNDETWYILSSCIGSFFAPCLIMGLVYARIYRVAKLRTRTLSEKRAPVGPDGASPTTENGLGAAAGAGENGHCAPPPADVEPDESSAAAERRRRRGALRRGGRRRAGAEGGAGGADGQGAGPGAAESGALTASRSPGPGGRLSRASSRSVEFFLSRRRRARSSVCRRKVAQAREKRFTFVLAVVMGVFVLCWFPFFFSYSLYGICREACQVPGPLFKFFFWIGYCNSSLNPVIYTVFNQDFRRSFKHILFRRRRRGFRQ

[4] = Mouse brain homogenate binding; format: in vitro ADME
[5] = Discrete mouse in vivo PK study, plasma and brain; conditions: for half-life: ip, 5 mg/kg
D4 receptor = biological target: T2, D4 receptor (Homo sapiens, UniProt P21917); format: binding
T2 sequence (P21917 1-419): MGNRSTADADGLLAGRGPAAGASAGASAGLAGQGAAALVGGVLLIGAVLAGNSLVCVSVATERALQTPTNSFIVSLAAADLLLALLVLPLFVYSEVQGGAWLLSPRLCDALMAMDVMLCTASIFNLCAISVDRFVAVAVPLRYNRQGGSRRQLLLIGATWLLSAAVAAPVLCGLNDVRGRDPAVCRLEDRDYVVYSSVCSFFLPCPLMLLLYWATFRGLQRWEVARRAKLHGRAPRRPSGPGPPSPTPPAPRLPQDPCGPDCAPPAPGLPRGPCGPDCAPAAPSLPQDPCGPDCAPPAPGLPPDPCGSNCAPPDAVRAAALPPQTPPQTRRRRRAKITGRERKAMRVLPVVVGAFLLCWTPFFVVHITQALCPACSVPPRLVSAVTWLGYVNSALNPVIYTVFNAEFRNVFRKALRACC

σ2 receptor = σ2 receptor (Homo sapiens, UniProt Q5BJF2); assay: σ2 receptor radioligand binding, [3H]DTG, HEK293 membranes; conditions: ratio, σ1 over σ2
σ2 receptor, sequence (Q5BJF2 whole entry, species assumed): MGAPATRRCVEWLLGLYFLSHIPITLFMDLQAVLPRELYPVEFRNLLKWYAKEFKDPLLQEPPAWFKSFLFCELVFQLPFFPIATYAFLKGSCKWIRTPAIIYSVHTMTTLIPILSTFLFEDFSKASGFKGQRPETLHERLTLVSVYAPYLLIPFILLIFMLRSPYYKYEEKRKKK

α2A = biological target: T3, α2A (Homo sapiens, UniProt P08913); assay: PDSP panel binding, α2A
T3 sequence (P08913 1-465): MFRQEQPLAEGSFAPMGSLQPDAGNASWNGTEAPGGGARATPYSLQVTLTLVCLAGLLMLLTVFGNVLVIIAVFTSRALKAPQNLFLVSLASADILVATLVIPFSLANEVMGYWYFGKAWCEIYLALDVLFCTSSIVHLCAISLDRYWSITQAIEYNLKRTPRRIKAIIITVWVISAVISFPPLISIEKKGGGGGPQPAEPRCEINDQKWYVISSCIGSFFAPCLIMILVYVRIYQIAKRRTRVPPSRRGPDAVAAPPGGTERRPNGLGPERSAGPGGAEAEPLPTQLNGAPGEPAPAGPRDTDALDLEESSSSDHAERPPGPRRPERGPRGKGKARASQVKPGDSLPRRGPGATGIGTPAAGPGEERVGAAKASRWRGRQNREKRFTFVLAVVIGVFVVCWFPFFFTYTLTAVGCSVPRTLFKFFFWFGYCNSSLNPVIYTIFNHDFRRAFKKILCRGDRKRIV

D1 receptor = D1 receptor (Homo sapiens, UniProt P21728); assay: D1 receptor radioligand binding, [3H]SCH23390, HEK293 membranes
D1 receptor, sequence (P21728 whole entry): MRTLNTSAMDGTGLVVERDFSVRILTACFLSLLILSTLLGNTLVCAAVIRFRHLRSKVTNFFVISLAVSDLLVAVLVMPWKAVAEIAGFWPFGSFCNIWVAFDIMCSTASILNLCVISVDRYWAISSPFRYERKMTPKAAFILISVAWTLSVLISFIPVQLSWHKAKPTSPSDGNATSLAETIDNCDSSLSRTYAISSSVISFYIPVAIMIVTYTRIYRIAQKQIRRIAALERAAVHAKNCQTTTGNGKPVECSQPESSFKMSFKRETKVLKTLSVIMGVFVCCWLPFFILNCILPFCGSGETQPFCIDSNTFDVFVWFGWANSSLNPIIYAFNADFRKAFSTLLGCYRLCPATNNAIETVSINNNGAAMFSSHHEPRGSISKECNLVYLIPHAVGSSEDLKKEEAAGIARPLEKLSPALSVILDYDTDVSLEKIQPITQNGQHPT

[6] = Human plasma protein binding, equilibrium dialysis; format: in vitro ADME

SERT, sequence (P31645 whole entry, species assumed): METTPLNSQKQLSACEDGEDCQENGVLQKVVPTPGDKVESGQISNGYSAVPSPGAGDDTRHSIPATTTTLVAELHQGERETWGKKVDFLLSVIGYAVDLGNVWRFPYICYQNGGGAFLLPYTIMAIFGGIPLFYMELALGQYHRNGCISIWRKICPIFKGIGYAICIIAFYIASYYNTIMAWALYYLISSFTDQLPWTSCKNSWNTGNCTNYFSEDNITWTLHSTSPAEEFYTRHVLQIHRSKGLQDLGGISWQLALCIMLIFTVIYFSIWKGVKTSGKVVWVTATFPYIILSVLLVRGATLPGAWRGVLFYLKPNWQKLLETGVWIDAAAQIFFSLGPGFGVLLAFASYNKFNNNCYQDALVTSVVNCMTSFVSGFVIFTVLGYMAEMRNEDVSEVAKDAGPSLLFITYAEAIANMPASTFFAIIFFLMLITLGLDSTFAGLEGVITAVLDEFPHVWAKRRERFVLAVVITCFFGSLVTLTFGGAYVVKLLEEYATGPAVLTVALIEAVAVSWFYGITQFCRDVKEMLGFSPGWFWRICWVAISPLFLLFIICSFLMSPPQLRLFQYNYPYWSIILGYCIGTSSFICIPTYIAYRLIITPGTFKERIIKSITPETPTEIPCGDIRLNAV

Predicted hepatic clearance mCLHEP [1] [mL/min/kg]	CLint scaled [3] [mL/min/kg]	Predicted hepatic clearance hCLHEP [3] [mL/min/kg]	CLint scaled [1] [mL/min/kg]	Ki (α2A) [nM]	selectivity versus α2A (α2A; σ1 over α2A)	Ki (D4 receptor) [nM]	Ki (D1 receptor) [nM]	inhibition at 10 µM (D4 receptor; read-out: D4 % inhibition) [%]	Stability in human plasma (hPPB column) [6]	SMILES	selectivity versus SERT (SERT)	fraction unbound [2]	Ki (α2C) [nM]	selectivity versus α2C (α2C; σ1 over α2C)	fraction unbound [4]	B:P Kp,uu ([5]; IP 5 mg/kg, 5 h, free brain to free plasma concentration)	half-life ([5]; brain) [h]	half-life ([5]; plasma) [h]	selectivity against the dopamine receptor family (D4 receptor; σ1 over D1-5) [fold]	selectivity σ1:σ2 (σ2 receptor)
79.8	223	18.4	696	697	194	> 10000				Fc1ccc(CN2CCCC23CCN(Cc2cn4ccccc4n2)C3)cc1F (centres unmarked) [Compound 25a, 1-(3,4-difluorobenzyl)-7-(imidazo[1,2-a]pyridin-2-ylmethyl)-1,7-diazaspiro[4.4]nonane]										6
						> 10000	> 10000	46		COc1ccc(CO[C@H]2CCCN(Cc3cccc(C)c3)C2)cc1F [Compound 19h, (S)-3-((3-fluoro-4-methoxybenzyl)oxy)-1-(3-methylbenzyl)piperidine]										
45.1		14.2								Fc1cc(COC2CCN(Cc3ccc4[nH]cnc4c3)CC2)ccc1Cl [Compound 10b, 5-((4-((4-chloro-3-fluorobenzyl)oxy)piperidin-1-yl)methyl)-1H-benzo[d]imidazole]		0.189			0.093		6.9	3.7		
82.4	674	19.5	961						c	COc1ccc(CN2CCC[C@@H](OCc3ccc(F)c(C)c3)C2)cc1F [Compound 19b, (R)-3-((4-fluoro-3-methylbenzyl)oxy)-1-(3-fluoro-4-methoxybenzyl)piperidine]										

SMILES	Predicted hepatic clearance mCLHEP [1] [mL/min/kg]	CLint scaled [3] [mL/min/kg]	Predicted hepatic clearance hCLHEP [3] [mL/min/kg]	CLint scaled [1] [mL/min/kg]	Ki (α2A) [nM]	selectivity versus α2A (α2A; σ1 over α2A)	Ki (D4 receptor) [nM]	Ki (D1 receptor) [nM]	inhibition at 10 µM (D4 receptor; read-out: D4 % inhibition) [%]	Stability in human plasma (hPPB column) [6]	selectivity versus SERT (SERT)	fraction unbound [2]	Ki (α2C) [nM]	selectivity versus α2C (α2C; σ1 over α2C)	fraction unbound [4]	B:P Kp,uu ([5]; IP 5 mg/kg, 5 h, free brain to free plasma concentration)	half-life ([5]; brain) [h]	half-life ([5]; plasma) [h]	selectivity against the dopamine receptor family (D4 receptor; σ1 over D1-5) [fold]	selectivity σ1:σ2 (σ2 receptor)
Fc1ccc(COC2CCN(Cc3ccc4[nH]cnc4c3)CC2)cc1F [Compound 10a, 5-((4-((3,4-difluorobenzyl)oxy)piperidin-1-yl)methyl)-1H-benzo[d]imidazole]	46.0	< 20	<10								20	0.358	853	103	0.205	3.68	9.1	2.1	> 490	20
